Assays:
[1] = molecular target: T1, Relaxin receptor 1 (Homo sapiens) (UniProt Q9HBX9); assay: Agonist activity at human RXFP1 expressed in T-Rex-CHO-K1 cells assessed as stimulation of cAMP production by measuring maximal efficacy at 50 uM incubated for 45 mins by HTRF assay relative to control; format: functional, cell-based; details: filed as agonist
T1 sequence (whole entry): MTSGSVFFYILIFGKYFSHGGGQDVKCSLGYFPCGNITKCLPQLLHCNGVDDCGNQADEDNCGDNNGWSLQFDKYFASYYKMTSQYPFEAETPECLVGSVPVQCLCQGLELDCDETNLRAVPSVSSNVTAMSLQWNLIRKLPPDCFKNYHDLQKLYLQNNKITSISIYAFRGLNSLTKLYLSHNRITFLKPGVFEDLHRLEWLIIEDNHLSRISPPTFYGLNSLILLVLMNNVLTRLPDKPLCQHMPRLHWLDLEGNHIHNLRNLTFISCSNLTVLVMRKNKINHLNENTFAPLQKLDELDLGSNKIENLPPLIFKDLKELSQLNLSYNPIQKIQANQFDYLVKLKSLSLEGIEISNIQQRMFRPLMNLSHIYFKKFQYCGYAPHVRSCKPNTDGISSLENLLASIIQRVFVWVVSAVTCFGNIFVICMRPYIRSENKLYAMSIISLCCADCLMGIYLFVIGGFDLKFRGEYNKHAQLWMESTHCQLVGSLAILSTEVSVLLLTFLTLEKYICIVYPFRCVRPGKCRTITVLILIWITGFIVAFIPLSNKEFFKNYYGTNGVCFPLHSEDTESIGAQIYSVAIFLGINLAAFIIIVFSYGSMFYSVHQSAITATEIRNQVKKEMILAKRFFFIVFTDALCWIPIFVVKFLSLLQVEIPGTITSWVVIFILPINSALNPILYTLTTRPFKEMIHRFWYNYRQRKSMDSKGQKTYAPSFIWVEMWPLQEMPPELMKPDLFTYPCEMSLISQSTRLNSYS

[2] = Lipophilicity, logD of the compound in 1-octanol and phosphate buffer at pH 7.4 incubated for 3 hrs by shake flask method based LC/MS/MS analysis; format: physicochemical; details: 1-octanol/phosphate buffer, pH 7.4
Relaxin receptor 1 = molecular target: T2, Relaxin receptor 1 (Homo sapiens, UniProt Q9HBX9); assay: Agonist activity at human RXFP1 expressed in T-Rex-CHO-K1 cells assessed as stimulation of cAMP production incubated for 45 mins by HTRF assay; format: functional, cell-based
T2 sequence (Q9HBX9 whole entry): T1 sequence (whole entry)

[3] = Metabolic stability in cryopreserved human hepatocytes assessed as intrinsic clearance measured per 10^6 cells at 1 uM after 120 mins by LC-MS/MS analysis; format: ADME, cell-based, Hepatocyte; details: cryopreserved hepatocytes, read-out: CLH
[4] = Metabolic stability in cryopreserved human hepatocytes assessed as unbound intrinsic clearance measured per 10^6 cells at 1 uM measured after 120 mins by LC-MS/MS analysis; format: ADME, cell-based, Hepatocyte; details: 2 h
[5] = Metabolic stability in human liver microsomes assessed as intrinsic clearance at 1 uM incubated for 30 mins in presence of NADPH by LC-MS/MS analysis; format: ADME, Microsome; details: liver microsomes, read-out: CLH
[6] = Metabolic stability in human liver microsomes assessed as unbound intrinsic clearance at 1 uM incubated for 30 mins in presence of NADPH by LC-MS/MS analysis; format: ADME, Microsome; details: 0.5 h

Structure (SMILES)	Emax [1] [%]	logD at 3 h [2]	EC50 (Relaxin receptor 1) [nM]	hepatocyte CLint at 1 µM [3] [µL/min/1e6 cells]	CL free [4] [µL/min]	microsomal CLint at 1 µM [5] [µL/min/mg]	CL free [6]
COc1cc(F)c(O[C@H]2CC[C@@H](C(=O)O)CC2)cc1C(=O)N[C@@H]1[C@H]2CC[C@H](C2)[C@@H]1C(=O)Nc1ccccc1	98	2.5	7940	7.6	25	–	–
COc1cc(F)c(O[C@H]2CC[C@H](C(=O)O)CC2)cc1C(=O)N[C@H]1[C@@H](C(=O)Nc2cccc(S(=O)(=O)C(F)(F)F)c2)[C@@H]2C=C[C@H]1C2	81	3	2000	8.4	84	–	–
COc1cc(F)c(C(=O)N2CCC(C)(C(=O)O)CC2)cc1C(=O)N[C@H]1[C@@H](C(=O)Nc2cccc(S(=O)(=O)C(F)(F)F)c2)[C@@H]2C=C[C@H]1C2 (racemic)	111	1.9	3160	3	6.3	–	–
COc1cc(F)c(O[C@H]2CC[C@@H](C(=O)O)CC2)cc1C(=O)N[C@H]1[C@@H](C(=O)Nc2ccc(F)c(S(=O)(=O)C(F)(F)F)c2)[C@@H]2C=C[C@H]1C2	114	–	15.8	7.5	32	–	–
COc1cc(F)c(O[C@H]2CC[C@@H](C(=O)O)CC2)cc1C(=O)N[C@@H]1[C@H]2CC[C@H](C2)[C@@H]1C(=O)Nc1cccc(C(F)F)c1	104	2.8	–	11	51	–	–
COc1cc(F)c(OCCCCC(=O)O)cc1C(=O)N[C@H]1[C@@H](C(=O)Nc2cccc(S(=O)(=O)C(F)(F)F)c2)[C@@H]2C=C[C@H]1C2 (racemic)	119	2.9	251	16	89	–	–
COc1cc(F)c(O[C@H]2CC[C@@](C)(C(=O)O)CC2)cc1C(=O)N[C@@H]1CCC[C@@H]1C(=O)Nc1ccc(F)c(S(F)(F)(F)(F)F)c1	105	4.35	3.16	13	283	–	–
COc1cc(F)c(-c2ccc(C[C@H](C(=O)O)N(C)C)cc2)cc1C(=O)N[C@@H]1[C@H]2CC[C@H](C2)[C@@H]1C(=O)Nc1cccc(S(=O)(=O)C(F)(F)F)c1	105	3.7	200	–	–	28	1.1 10^3uL/min/mg
COc1cc(F)c(O[C@H]2CC[C@@](C)(C(=O)O)CC2)cc1C(=O)N[C@@H]1C[C@@H](OC)C[C@@H]1C(=O)Nc1cccc(S(=O)(=O)C(F)(F)F)c1	110	3	25.1	6.2	26	–	–
COc1cc(F)c(O[C@H]2CC[C@@](C)(C(=O)O)CC2)cc1C(=O)N[C@@H]1[C@H]2CC[C@H](C2)[C@@H]1C(=O)Nc1cccc(S(=O)(=O)C(F)(F)F)c1	109	4.15	2	15	306	–	–
COc1cc(F)c(O[C@H]2CC[C@@H](C(=O)O)CC2)cc1C(=O)N[C@@H]1[C@H](C(=O)Nc2ccc(F)c(C(F)(F)F)c2)[C@H]2C=C[C@@H]1C2	107	3.6	2570	4.8	42	–	–
COc1cc(F)c(O[C@H]2CC[C@@H](C(=O)O)CC2)cc1C(=O)N[C@@H]1[C@H]2CC[C@H](C2)[C@@H]1C(=O)Nc1ccncc1	42	1.6	> 50100	–	–	–	–
COc1ccccc1C(=O)N[C@@H]1CCC[C@@H]1C(=O)Nc1cccc(S(=O)(=O)C(F)(F)F)c1 (racemic)	74	4.9	> 50100	–	–	174	2.4 10^3uL/min/mg
COc1cc(F)c(O[C@H]2CC[C@](C)(C(=O)O)CC2)cc1C(=O)N[C@@H]1[C@H]2CC[C@H](C2)[C@@H]1C(=O)Nc1cccc(S(=O)(=O)C(F)(F)F)c1	103	4.2	100	10	222	–	–
COc1cc(F)c(O[C@H]2CC[C@@H](C(=O)O)CC2)cc1C(=O)N[C@H]1[C@H](C(=O)Nc2ccc(F)c(C(F)(F)F)c2)[C@@H]2C=C[C@H]1C2	91	3.5	3980	10	91	–	–
COc1cc(F)c(O[C@H]2CC[C@@](C)(C(=O)O)CC2)cc1C(=O)N[C@@H]1COC[C@@H]1C(=O)Nc1cccc(S(=O)(=O)C(F)(F)F)c1	104	2.6	126	6.3	23	–	–
COc1cc(F)c(O[C@H]2CC[C@@H](C(=O)O)CC2)cc1C(=O)N[C@H]1[C@@H](C(=O)Nc2cccc(S(=O)(=O)C(F)(F)F)c2)[C@@H]2C=C[C@H]1C2	109	3.25	63.1	11	100	–	–

Next, values leading:

Emax [1] [%]	logD at 3 h [2]	EC50 (Relaxin receptor 1) [nM]	hepatocyte CLint at 1 µM [3] [µL/min/1e6 cells]	CL free [4] [µL/min]	microsomal CLint at 1 µM [5] [µL/min/mg]	CL free [6]	Structure (SMILES)
87	4.7	1740	–	–	> 300	> 38 10^3uL/min/mg	COc1ccc(-c2cccnc2)cc1C(=O)N[C@@H]1[C@H](C(=O)Nc2cccc(S(=O)(=O)C(F)(F)F)c2)[C@H]2C=C[C@@H]1C2 (racemic)
117	2.3	3980	–	–	7	19 µL/min/mg	COc1cnc(-c2ccc(C(=O)O)cc2)cc1C(=O)N[C@H]1[C@@H](C(=O)Nc2cccc(S(=O)(=O)C(F)(F)F)c2)[C@@H]2C=C[C@H]1C2 (racemic)
113	> 3	1580	–	–	> 300	> 14 10^3uL/min/mg	COc1cc(F)ccc1C(=O)N[C@@H]1[C@H](C(=O)Nc2cccc(S(=O)(=O)C(F)(F)F)c2)[C@H]2C=C[C@@H]1C2 (racemic)
93	> 3.9	912	–	–	110	92 10^3uL/min/mg	COc1cc(F)c(-c2ccccc2)cc1C(=O)N[C@@H]1[C@H](C(=O)Nc2cccc(S(=O)(=O)C(F)(F)F)c2)[C@H]2C=C[C@@H]1C2 (racemic)
100	4.9	3160	–	–	300	12 10^3uL/min/mg	COc1ccccc1C(=O)N[C@@H]1[C@H](C(=O)Nc2cccc(S(=O)(=O)C(F)(F)F)c2)[C@H]2C=C[C@@H]1C2 (racemic)
114	2.5	1580	13	51	–	–	COc1cc(F)c(OCCCC(=O)O)cc1C(=O)N[C@H]1[C@@H](C(=O)Nc2cccc(S(=O)(=O)C(F)(F)F)c2)[C@@H]2C=C[C@H]1C2 (racemic)
103	3.6	316	7.2	480	–	–	COc1cc(F)c(Oc2ccc(C(=O)O)cc2)cc1C(=O)N[C@H]1[C@@H](C(=O)Nc2cccc(S(=O)(=O)C(F)(F)F)c2)[C@@H]2C=C[C@H]1C2 (racemic)
109	> 4.2	794	–	–	> 300	> 25 10^3uL/min/mg	COc1cc(F)c(F)cc1C(=O)N[C@@H]1[C@H](C(=O)Nc2cccc(S(=O)(=O)C(F)(F)F)c2)[C@H]2C=C[C@@H]1C2 (racemic)
99	–	–	–	–	–	–	COc1cc(F)c(-c2ccc(C(=O)O)cc2)cc1C(=O)N[C@H]1[C@@H](C(=O)Nc2cccc(S(=O)(=O)C(F)(F)F)c2)[C@@H]2C=C[C@H]1C2
111	1.7	631	–	–	13	65 µL/min/mg	COc1cc(F)c(-c2ncc(C(=O)O)s2)cc1C(=O)N[C@H]1[C@@H](C(=O)Nc2cccc(S(=O)(=O)C(F)(F)F)c2)[C@@H]2C=C[C@H]1C2 (racemic)
